Laboratory results as given in ChEMBL document CHEMBL3600313, “Novel (pyrazolyl)benzenesulfonamides with a nitric oxide-releasing moiety as selective cyclooxygenase-2 inhibitors” (Bioorg Med Chem Lett, 2015).
pIC50: −log10 of the molar value.

Legend:
[1] = Nitric oxide release in phosphate-buffered-saline containing K3[Fe(CN)6] using 2,3-diaminonaphthlene at 50 uM after 90 mins by fluorescence assay
[2] = tested on: Serum; experiment: Nitric oxide release in rat serum using 2,3-diaminonaphthlene at 50 uM after 90 mins by Griess assay; assay type: ADME, cell-free; details: 1.5 h
[3] = Nitric oxide release in phosphate-buffered-saline using 2,3-diaminonaphthlene at 50 uM after 90 mins by Griess assay
[4] = Nitric oxide release in phosphate-buffered-saline using 2,3-diaminonaphthlene at 50 uM after 90 mins by fluorescence assay
[5] = tested on: Plasma; experiment: Nitric oxide release in human plasma using 2,3-diaminonaphthlene at 50 uM after 90 mins by fluorescence assay; assay type: ADME, cell-free; details: 1.5 h
[6] = Nitric oxide release in phosphate-buffered-saline containing K3[Fe(CN)6] using 2,3-diaminonaphthlene at 50 uM after 90 mins by Griess assay
[7] = Nitric oxide release in phosphate-buffered-saline containing L-cysteine using 2,3-diaminonaphthlene at 50 uM after 90 mins by fluorescence assay
[8] = target: T1, Prostaglandin G/H synthase 2 (Homo sapiens, UniProt P35354); experiment: Inhibition of recombinant human COX-2 assessed as reduction of prostaglandin-G2 to prostaglandin-H2 and oxidation of 10-acetyl-3,7-dihydroxyphenoxazine to resorufin after 5 mins by fluorescence based assay
T1 sequence (P35354 whole entry): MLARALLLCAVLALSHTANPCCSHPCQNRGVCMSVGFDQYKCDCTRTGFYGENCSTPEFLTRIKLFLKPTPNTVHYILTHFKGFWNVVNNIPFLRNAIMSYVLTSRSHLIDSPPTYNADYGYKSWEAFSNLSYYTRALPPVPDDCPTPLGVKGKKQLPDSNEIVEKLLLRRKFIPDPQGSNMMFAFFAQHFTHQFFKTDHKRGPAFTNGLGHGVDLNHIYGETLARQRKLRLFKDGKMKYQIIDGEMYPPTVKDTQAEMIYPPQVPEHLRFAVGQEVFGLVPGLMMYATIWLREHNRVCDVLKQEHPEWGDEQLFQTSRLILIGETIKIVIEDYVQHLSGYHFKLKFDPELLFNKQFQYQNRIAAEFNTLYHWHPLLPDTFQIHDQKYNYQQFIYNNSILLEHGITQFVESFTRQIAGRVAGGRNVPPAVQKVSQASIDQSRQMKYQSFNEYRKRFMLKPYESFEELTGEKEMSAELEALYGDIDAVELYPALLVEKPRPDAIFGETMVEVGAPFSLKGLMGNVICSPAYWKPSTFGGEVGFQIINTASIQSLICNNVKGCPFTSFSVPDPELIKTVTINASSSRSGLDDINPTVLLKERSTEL

[9] = target: T2, Prostaglandin G/H synthase 1 (Ovis aries, UniProt P05979); experiment: Inhibition of ovine COX-1 assessed as reduction of prostaglandin-G2 to prostaglandin-H2 and oxidation of 10-acetyl-3,7-dihydroxyphenoxazine to resorufin after 5 mins by fluorescence based assay
T2 sequence (P05979 whole entry): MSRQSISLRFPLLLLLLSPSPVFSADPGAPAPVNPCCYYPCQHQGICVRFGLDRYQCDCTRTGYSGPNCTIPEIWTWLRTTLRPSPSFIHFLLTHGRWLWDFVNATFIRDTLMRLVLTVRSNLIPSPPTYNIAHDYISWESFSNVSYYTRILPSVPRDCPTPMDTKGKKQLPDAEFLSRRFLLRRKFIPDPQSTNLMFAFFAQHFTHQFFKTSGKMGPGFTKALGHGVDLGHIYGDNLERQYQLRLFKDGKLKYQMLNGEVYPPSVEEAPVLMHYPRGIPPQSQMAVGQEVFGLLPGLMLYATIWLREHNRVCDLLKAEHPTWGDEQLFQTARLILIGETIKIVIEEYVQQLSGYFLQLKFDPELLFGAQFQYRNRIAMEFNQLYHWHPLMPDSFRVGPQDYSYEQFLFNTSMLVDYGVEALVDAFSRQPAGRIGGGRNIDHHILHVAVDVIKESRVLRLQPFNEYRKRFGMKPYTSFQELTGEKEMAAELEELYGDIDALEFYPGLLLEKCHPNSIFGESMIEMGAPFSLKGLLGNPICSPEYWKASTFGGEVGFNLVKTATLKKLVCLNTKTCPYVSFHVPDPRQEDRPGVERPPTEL

[10] = Selectivity index, ratio of IC50 for ovine COX-1 to IC50 for recombinant human COX-2
[11] = Chemical stability of the compound in aqueous solution after 9 days by HPLC analysis; assay type: physicochemical; details: buffer, 216 h
[12] = Nitric oxide release in phosphate-buffered-saline containing human plasma at 50 uM after 90 mins by fluorescence assay in absence of HgCl2
[13] = Nitric oxide release in phosphate-buffered-saline containing human plasma at 50 uM after 90 mins by fluorescence assay in presence of HgCl2

Structure (SMILES)	Activity [1] [%]	Activity [2] [%]	Activity [3] [%]	Activity [4] [%]	Activity [5] [%]	Activity [6] [%]	Activity [7] [%]	pIC50 [8]	pIC50 [9]	Ratio IC50 [10]	Stability [11]	Activity [12] [%]	Activity [13] [%]
O=S(=O)(NO)c1ccccc1	48.3	3.2	59.7	33.5	0.3	58.4	0.3	–	–	–	–	–	–
Cc1ccc(-c2cc(CO)nn2-c2ccc(S(N)(=O)=O)cc2)cc1	–	–	–	–	–	–	–	5.90	< 4.00	> 78.7	Stable	–	–
Cc1ccc(-c2cc(CO[N+](=O)[O-])nn2-c2ccc(S(N)(=O)=O)cc2)cc1	0.6	–	–	–	0.3	–	1.2	6.05	< 4.00	> 112	Stable	0	3.5
Cc1ccc(-c2c(Cl)c(CO[N+](=O)[O-])nn2-c2ccc(S(N)(=O)=O)cc2)cc1	–	–	–	–	0.5	–	0.8	6.55	4.21	218	–	0	3.5
Cc1ccc(-c2cc(CCl)nn2-c2ccc(S(N)(=O)=O)cc2)cc1	–	–	–	–	–	–	–	6.01	< 4.00	> 103	–	–	–
Cc1ccc(-c2c(Cl)c(CCl)nn2-c2ccc(S(N)(=O)=O)cc2)cc1	–	–	–	–	–	–	–	6.66	< 4.00	> 454	–	–	–
CC(=O)Oc1ccccc1C(=O)OCCCCO[N+](=O)[O-]	0.2	–	–	–	1.4	–	0.8	4.35	4.19	1.4	–	–	–
